Bridge positions count the residues as written; N and C are the ends. Square brackets hold non-standard residues; d marks the D form. Peptide text beside a SMILES is read from it. * marks the point of attachment. X1 = CC[C@H](C)CCCCC(=O)*; Dab = NCC[C@H](N)C(=O)O
Assays:
[1] = system: mammalian extracellular vesicles (Expi293 cells); assay: SPR binding to mammalian vesicles on LP chip; conditions: 312.5 nM–40 µM, 25 °C
Excerpt: tween-80 (SI Fig. S4F). Note that higher concentrations were used to resolve the interaction above non-specific chip binding and the loss of polymyxin B to binding of plastics as discussed […]
OMVs isolated from polymyxin-resistant bacteria (resistant-OMVs) were composed of modified lipid A (SI Table S1 and SI Fig. S6) and were immobilized via amine-coupled polymyxin B to the surface of a C1 chip (SI Fig. S4G). Given the results of our studies here, the binding of resistant-OMVs to the amine-coupled polymyxin B surface (stably, at least within the time frames used here) is not surprising. OMVs have several advantages over whole cells and purified LPS. They can be produced in large batches and frozen for multiple experiments. OMVs can be isolated from potentially any genetic background (such as the two polymyxin-resistant strains used here), from potentially any gram-negative bacterial strains, and allow interrogation of types of LPS which are not commercially available (ex. modified lipid A species). […]
Analysis and compartment temperature were set to 25°C. Mammalian vesicles from Expi293 cells were isolated as described19 by harvesting supernatants and concentrating vesicles via ultra-centrifugation (120,000 xg, 4°C, 1h), washing, suspending pellet in PBS, quantifying by Bradford protein assay, and diluting to […] in PBS. […]

wt-OMVs = assay: Three-state model fit to SPR titration, wt-OMVs; format: binding, E. coli
Excerpt: To estimate binding constants, the three-state model was fit to binding curve titrations (Fig. 5A, B, and Table 2). Briefly, the SPR response curves of polymyxin B binding wt-OMVs (Fig. 5A) or resistant OMVs (Fig. 5B) were globally fit to Eqn. (1) by non-linear regression coupled to numerical integration of the associated ordinary differential equations (see Supplementary Information Section 2A), which define the time-dependent concentrations of each species.1 Response(t)=([PMBL]t+[nPMBL]t+2*[tPMB]t+m.[cPMB]t).MW.G.
Section 2A - Formulation of three-state model for fitting SPR data
The three-state model (Fig. 4) was formulated as a set of coupled ordinary differential equations (ODEs), with eight binding rate constants (k1-8) governing the rates of interchange of each species.
Forward rate constants k7 and k9 were eliminated from the equation set as formation of transient species tPMB and LL are irreversible.
Time at Injection 1 start = 0 s
Sample contact time = 30 s
Dissociation time interval = 35 s
Mass transport rate = kt = 46.5 1/s
Initial Species Concentrations
Coupled ODEs of Three-State Model d[L]/dt = -(k1.[PMB].[L] - k2.[PMBL])+2*k10.[LL] (S8) d[PMB]/dt = -(k1.[PMB].[L] - k2.[PMBL]) + kt’.([PMBi](t) –[PMB]) (S9) d[PMBL]/dt = (k1.[PMB]*[L] - k2.[PMBL])-(k3.[PMBL].[n] - k4.[nPMBL] ) (S10) d[n]/dt = -(k3.[PMBL].[n] - k4.[nPMBL] ) (S11) d[nPMBL]/dt = (k3.[PMBL].[n] - k4.[nPMBL])-2.(k5.[nPMBL].[nPMBL] - k6.[tPMB].[LL] ) (S12) d[tPMB]/dt = (k5.[nPMBL].[nPMBL] - k6.[tPMB].[LL] ) – k8.[tPMB] (S13) d[cPMB]/dt = 2*k8.[tPMB] (S14) d[LL]/dt = (k5.[nPMBL].[nPMBL] – k6.[tPMB].[LL]) – k10.[LL] (S15)
The initial concentrations of each species were as follows
[PMB]t=0 = [PMBL]t=0 = [nPMBL]t=0 = [tPMB]t=0 = [LL]t=0 = [cPMB]t=0 = 0 [L]t=0 = [n]t=0 = 1.56 x 10-4 (units, M) kt’ (units, m/s) was already defined in SI Section 1A. [PMBi](t) is the injected concentration profile and [PMB]t is the concentration profile at the sensing surface. [PMBi](t) follows a serial-doubling concentration of injected analyte, with a concentration profile defined by a serial step function, where each injection step represents a discrete concentration followed by a dissociation step without injected analyte and this is repeated for each concentration in the SCK dosing series.
Kintek Explorer V9.5 was used to build and fit the three-state model. This program employs its own numerical integrator9, which reports the change in concentration of each species over time.
The SPR responses for concentrations of each accumulating PMB-species estimated from Eqn (8 - 15) are summed over time in Eqn (1), repeated here.
Response(t) = ([PMBL]t+[nPMBL]t+2*[tPMB]t+m.[cPMB]t).MW.G. Eqn (1)
The concentration of [tPMB]t is multiplied by two to account for its additional mass, being composed of two PMB molecules. Insertion of PMB into the acyl-LPS matrix to form cPMB is associated with changes in the phase state of LPS10 and is also likely associated with redistribution of mass towards the sensing surface11. These changes will manifest as an increase in sensitivity of the SPR binding response when clusters are formed and are included in Eqn (1) […]
using a sensitivity coefficient (m). MW is the molecular weight of the injected analyte, in this case PMB (1203.48 Da). The constant, G, is a unit conversion factor that converts protein concentration (g/L) to response (RU) and is typically 100 (units, RU.L/g). […]

CC[C@H](C)CCCCC(=O)N[C@@H](CCN)C(=O)N[C@H](C(=O)N[C@@H](CCN)C(=O)N[C@H]1CCNC(=O)[C@H]([C@@H](C)O)NC(=O)[C@H](CCN)NC(=O)[C@H](CCN)NC(=O)[C@H](CC(C)C)NC(=O)[C@@H](Cc2ccccc2)NC(=O)[C@H](CCN)NC1=O)[C@@H](C)O [Polymyxin B] (X1-[Dab]T[Dab][Dab][Dab][dF]L[Dab][Dab]T; lactam 4-C (inferred); N-terminus assumed) was tested, and the “SPR binding to mammalian cell derived vesicles” value [1] was “distinct from what we observe with OMVs and bacterial cells”, the k5 (wt-OMVs; dimerization of nPMBL, global fit, max 625 nM) was 20.75 M⁻¹ s⁻¹ and the k3 (wt-OMVs; membrane insertion / nPMBL formation, global fit, max 625 nM) was 2233 M⁻¹ s⁻¹. The k4 (wt-OMVs; nPMBL dissociation, global fit, max 625 nM) was 0.00488 s⁻¹, the “relative fraction of transition state” value (wt-OMVs; peer review file) was less than 0.1% and the “residence time = 1/k4” value (wt-OMVs; stability of nucleates (nPMBL)) was 205 s.

From PMC11148078, “Potent activity of polymyxin B is associated with long-lived super-stoichiometric accumulation mediated by weak-affinity binding to lipid A” (Nature Communications, 2024)
